# What was measured:
# C57BL6J mice [1] = assay: Acute kidney ischemic reperfusion (IR) injury animal model; type: in vivo; settings: 4 µg/kg and 8 µg/kg via tail vein; vs vehicle-treated IR group
# Method: Vehicle and Compound 1 (4 µg/kg or 8 µg/kg) were administered to 8-week-old male C57BL6J mice via the tail vein 24 hours before, 1 hour before, and 12 hours after ischemic reperfusion (IR) surgery. The surgery was performed by blocking the artery leading to the kidney to induce ischemia for 37 minutes. The blocked artery was released, and 24 hours later, the mice were anesthetized and autopsied. Other part was used to synthesize cDNA, and a kidney damage marker, NGAL was identified by real-time PCR. And serum was separated from the blood, and creatinine, which is a kidney damage marker in the serum, was examined, and the results are shown in FIG. 3.
# H9C2 cells = assay: Myocardial infarction cell model (hypoxia-reoxygenation); type: cell-based, rat; settings: 1 µM
# Method: H9C2 cells, which are a rat […] cell line, were seeded at a density of 3 × 10^3 cells/well in a 96-well plate and cultured for 24 hours. The next day, the medium was replaced with FBS-free DMEM and cultured for an additional 24 hours. After replacing the medium with FBS-free DMEM again, 1 µM of Compound 1 was treated and cultured in a hypoxia chamber (1% oxygen, 5% CO2) for 2 hours (hypoxia). After replacing the medium with DMEM with 10% FBS, 1 µM of Compound 1 was treated and cultured in a CO2 incubator for 1 hour (reoxygenation). Apoptosis, mitochondrial superoxide levels, and intracellular calcium levels were measured, and the results are shown in FIGS. 4 and 5, respectively.
# mice = assay: Acute pancreatitis animal model (cerulein-induced); type: in vivo; settings: 5 µg/kg or 10 µg/kg tail vein; dose-dependent
# Method: Acute pancreatitis was induced by intraperitoneal administration of cerulein (50 µg/kg) dissolved in saline to 8-week-old male mice. Compound 1 was administered at a concentration of 5 µg/kg or 10 µg/kg into the tail vein 24 hours and 1 hour before cerulein administration, and cerulein was intraperitoneally administered six times at 1-hour intervals. 18 hours after the first cerulein administration, the mice were anesthetized, the serum was separated, and the amylase and lipase activities in the serum were measured, which are shown in FIG. 8.
# C57BL6J mice [2] = assay: LPS-induced sepsis animal model, viability; type: in vivo; settings: 15 mg/kg i.p. 30 min before 50 mg/kg LPS
# Method: 50 mg/kg of lipopolysaccharide (LPS) administration dose corresponds to the 'half lethal dose' that causes death of one half of the population within 24 hours. […] The animal experiment was conducted with six 8-week-old male C57BL6J mice per group. Each mouse was intraperitoneally administered 15 mg/kg of Compound 1 or pretreated with 100 µL of 10% DMSO (vehicle control). 30 minutes later, 50 mg/kg lipopolysaccharide was intraperitoneally injected into each mouse, and the viability was examined for 80 hours, and the results are shown in FIG. 9 and Table 2.
# [3] = test system: bone marrow-derived dendritic cells (BMDCs); assay: Inflammasome formation (IL-1β ELISA) in LPS/ATP-treated dendritic cells; type: cell-based, C57BL6 mice; settings: for IL-1β: LPS 500 ng/mL + 5 mM ATP, supernatant; for inhibited IL-1β expression: compared to vehicle control group
# Method: Furthermore, to verify the anti-inflammatory effect at a cellular level, bone marrow cells of C57BL6 mice were treated with 20 ng/mL of GM-CSF and IL-4, and 6 days later, bone marrow-derived dendritic cells (BMDCs) were collected. The BMDCs were prepared at 1×10^6 cells/mL and stabilized for one day, and then subsequent experiments were conducted. The above dendritic cells were treated with 500 ng/mL of LPS for 3 hours to prime pro-IL1 β, and then treated with Compound 1 (0 µM, 0.01 µM, 0.1 µM, 1 µM, and 10 µM) for 15 minutes. Next, 5 mM of ATP was treated, which induces inflammasome formation by converting pro-IL1β to IL-1β through pro-IL1β cleavage, and 30 minutes later, the concentration of IL-1β in the supernatant was measured by ELISA, and the results are shown in FIG. 10 and Table 3.
# PDHE1α S293 = assay: In vitro PDH S293 phosphorylation inhibition (Western blot) in HEK293 cells; type: cell-based, human; settings: Homo sapiens, 5 hours
# Method in brief: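 HEK293 cells were switched to 0.5% FBS medium and treated with compounds at various concentrations for 5 h. Lysate protein (20 µg) was analysed by Western blot for phospho-PDHE1α S293 alongside total PDHE1α, with inhibition of S293 phosphorylation as the read-out.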
# [4] = test system: CT26 colorectal cancer cell line; assay: Anticancer efficacy in CT26 colorectal cancer tumor model; type: in vivo, nude mice; settings: 1.0 mg/kg
# Method: A colorectal cancer model was established by subcutaneously transplanting CT26 colorectal cancer cell line into nude mice. The colorectal cancer model was divided into two groups: vehicle administration group and Compound 1 administration group. […] Similar to Experimental Example 13, tumor size was calculated before drug administration and on days 3, 7, 10, 14, 18, 22, and 24 after drug administration, and body weight was measured before drug administration and on days 7, 14 and 22 after drug administration, which are shown in FIG. 22.
# Additionally, tumors were extracted from the colorectal cancer model, fixed with 4% PFA solution, and subjected to TUNEL assay to determine the degree of apoptosis induction, and the results are shown in FIG. 22. As shown in the middle of FIG. 22, 28% apoptosis was induced in the vehicle administration group, and 72% apoptosis was induced in the 1.0 mg/kg compound 1 administration group, and statistical significance between these values was also verified (*p<0.01 versus the vehicle administration group).
smiles,measurement,setting,value
"CC(C(=O)NNc1ccc(F)cc1)n1cc(-c2cc(F)cc3c2-c2ccccc2C3(O)C(F)(F)F)cn1 (stereo not drawn) [Example 1, 2-(4-(2-fluoro-9-hydroxy-9-(trifluoromethyl)-9H-fluoren-4-yl)-1H-pyrazol-1-yl)-N'-(4-fluorophenyl)propanehydrazide]",RNA expression of NGAL (kidney),C57BL6J mice [1],significantly reduced
same,apoptosis of kidney tissue (TUNEL staining),C57BL6J mice [1],significant reduction
same,renal tubular tissue damage (H&E staining),C57BL6J mice [1],significant reduction
same,serum creatinine,C57BL6J mice [1],significantly reduced
same,intracellular calcium (Rhod2 staining),H9C2 cells; hypoxia-reoxygenation,remarkably reduced
same,mitochondrial superoxide (MitoSOX staining),H9C2 cells; hypoxia-reoxygenation,remarkably reduced
same,apoptosis (TUNEL staining),H9C2 cells; hypoxia-reoxygenation (H/R),markedly reduced
same,serum amylase activity,mice,decreased
same,serum lipase activity,mice,decreased
same,Viability (%),C57BL6J mice [2]; Time 0 h,100%
same,Viability (%),C57BL6J mice [2]; Time 20 h,100%
same,Viability (%),C57BL6J mice [2]; Time 60 h,50%
same,Viability (%),C57BL6J mice [2]; Time 70 h,50%
same,Viability (%),C57BL6J mice [2]; Time 80 h,50%
same,IL-1β,[3]; 0.01 µM,1131.823 pg/mL
same,IL-1β,[3]; 0.1 µM,1009.825 pg/mL
same,inhibited IL-1β expression,[3]; 0.1 µM,about 83.802%
same,IL-1β,[3]; 1 µM,907.2636 pg/mL
same,IL-1β,[3]; 10 µM,647.6982 pg/mL
same,inhibited IL-1β expression,[3]; 10 µM,about 53.7504%
same,inhibition at 1 µM,PDHE1α S293,≥ 80%
same,decrease in tumor growth (tumor volume) compared to vehicle,[4]; day 24,55%
same,change in the body weight,"[4]; days 7, 14, 22",Neither the vehicle administration group nor the compound 1 administration group showed any change in the body weight
same,apoptosis induced in tumor (TUNEL assay),[4]; vehicle group 28%,72%
